Experimental data: the supplement of paper PMC11208160

Assay: recombinant barcode read abundance after kanamycin selection (control-corrected) (log10(CPM+1)); higher = more efficient recombination; sequences stand for … in AGTGCAGAGAAAATCGGCCAGTTTTCTCTGCCTGCAGTCCGCATGCCGT…AGATTTATGCAGCGGACTGCCTTTCTCCCAAAGTGATAAACCGGACAGTATCATGGACCGGTTTTCCCGGTAATCCGTATTTGCAAGGTTGGTTTCACT; site = the 11-nt target
Outline: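 Each value is log10(CPM+1). It describes recombination efficiency, taken as averaged, control-corrected counts per million of barcodes at recombinant junctions. The pooled E. coli library paired targets with IS621 bridge RNA target-binding loops, was co-electroporated with a donor plasmid, and was plated twice on chloramphenicol/ampicillin LB agar (control) and twice on chloramphenicol/ampicillin/kanamycin containing 0.1 mM IPTG.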
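Also: IS621 recombinase and bridge RNA in Escherichia coli cells.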

Sequence	recombinant barcode read abundance (log10)
CATCAGCCTTGGGTTCTAACCTGTTGCGT (site TATCAGCCTAA)	0.174
CATCCATCTTGGGTTCTAACCTGTTGCAT (site CATCCATCTAT)	0.883
CATCCATCTTGGGTTCTAACCTGTTGCAT (site TCGAGGCCTTA)	0.328
CATCCTCCTTGGGTTCTAACCTGTTGCTT (site CAGCCTTCTAA)	0.103
CATCCTCCTTGGGTTCTAACCTGTTGCTT (site CATCCTCCTAA)	0.0487
CATCGATCTTGGGTTCTAACCTGTTGCGT (site CATCGATCTAC)	1.6
CATCGATCTTGGGTTCTAACCTGTTGCGT (site CTTTGATCTAC)	0.0816
CATCGGACTTGGGTTCTAACCTGTTGCGA (site AGGGCACCTCT)	0.112
CATCGGACTTGGGTTCTAACCTGTTGCGA (site CATCGGACTTC)	1.35
CATGAGACTTGGGTTCTAACCTGTTGCGG (site CATGAGACTCC)	2.18
CATGAGACTTGGGTTCTAACCTGTTGCGG (site GCGATCCCTAA)	0.0802
CATGAGCCTTGGGTTCTAACCTGTTGCCT (site CATAAGCCTAG)	0.694
CATGAGCCTTGGGTTCTAACCTGTTGCCT (site CATCAGCCTAG)	0.0278
CATGAGCCTTGGGTTCTAACCTGTTGCCT (site CATGAGCCTAG)	2.23
CATGAGCCTTGGGTTCTAACCTGTTGCCT (site CATTAGCCTAG)	0.196
CATGATTCTTGGGTTCTAACCTGTTGCCT (site CATAATTCTAG)	0.0239
CATGATTCTTGGGTTCTAACCTGTTGCCT (site CATCATTCTAG)	0.087
CATGATTCTTGGGTTCTAACCTGTTGCCT (site CATGATTCTAG)	1.05
CATGATTCTTGGGTTCTAACCTGTTGCCT (site CATTATTCTAG)	0.0435
CATGCTCCTTGGGTTCTAACCTGTTGCAT (site CATGCTCCTAG)	0.168
CATGCTCCTTGGGTTCTAACCTGTTGCAT (site CATGCTCCTAT)	0.194
CATGCTCCTTGGGTTCTAACCTGTTGCCT (site CATGCTCCTAG)	0.353

Sequence	recombinant barcode read abundance (log10)
CATGCTCCTTGGGTTCTAACCTGTTGCCT (site CATGCTCCTAT)	0.512
CATTAGCCTTGGGTTCTAACCTGTTGCCT (site CATAAGCCTAG)	0.0881
CATTAGCCTTGGGTTCTAACCTGTTGCCT (site CATCAGCCTAG)	0.26
CATTAGCCTTGGGTTCTAACCTGTTGCCT (site CATGAGCCTAG)	0.0107
CATTAGCCTTGGGTTCTAACCTGTTGCCT (site CATTAGCCTAG)	0.583
CATTAGTCTTGGGTTCTAACCTGTTGCCT (site CATTAGTCTAG)	1.33
CATTAGTCTTGGGTTCTAACCTGTTGCCT (site TATTAATCTAG)	0.0986
CATTATCCTTGGGTTCTAACCTGTTGCCT (site CAATATCCTAG)	0.0661
CATTATCCTTGGGTTCTAACCTGTTGCCT (site CACTATCCTAG)	0.161
CATTATCCTTGGGTTCTAACCTGTTGCCT (site CAGTATCCTAG)	0.0928
CATTATCCTTGGGTTCTAACCTGTTGCCT (site CATTATCCTAG)	0.136
CATTCAACTTGGGTTCTAACCTGTTGCCG (site CATTCAACTAG)	0.0546
CATTCAACTTGGGTTCTAACCTGTTGCCG (site CATTCAACTCG)	0.0716
CCAAGATCTTGGGTTCTAACCTGTTGCCT (site CAAAGATCTAG)	0.178
CCAAGATCTTGGGTTCTAACCTGTTGCCT (site CCAAGATCTAG)	0.556
CCAAGATCTTGGGTTCTAACCTGTTGCCT (site CGAAGATCTAG)	0.201
CCAAGATCTTGGGTTCTAACCTGTTGCCT (site CTAAGATCTAG)	0.46
CCAAGCGCTTGGGTTCTAACCTGTTGCCT (site CCAAGCACTAG)	0.589
CCAAGCGCTTGGGTTCTAACCTGTTGCCT (site CCAAGCCCTAG)	0.0283
CCAAGCGCTTGGGTTCTAACCTGTTGCCT (site CCAAGCGCTAG)	0.769
CCAAGCGCTTGGGTTCTAACCTGTTGCCT (site CCAAGCTCTAG)	0.209
CCAAGGGCTTGGGTTCTAACCTGTTGCAG (site CCAAGGGCTCA)	1.09

Sequence	recombinant barcode read abundance (log10)
CCAAGGGCTTGGGTTCTAACCTGTTGCAG (site CCAAGGGCTCC)	0.546
CCAAGGGCTTGGGTTCTAACCTGTTGCAG (site CCAAGGGCTCG)	0.537
CCAAGGGCTTGGGTTCTAACCTGTTGCAG (site CCAAGGGCTCT)	2.13
CCAAGGGCTTGGGTTCTAACCTGTTGCCG (site CCAAGGGCTCA)	0.0491
CCAAGGGCTTGGGTTCTAACCTGTTGCCG (site CCAAGGGCTCC)	0.211
CCAAGGGCTTGGGTTCTAACCTGTTGCCG (site CCAAGGGCTCG)	0.143
CCAAGGGCTTGGGTTCTAACCTGTTGCCG (site CCAAGGGCTCT)	0.33
CCAAGTCCTTGGGTTCTAACCTGTTGCCA (site CCAAGTCCTTG)	0.0554
CCAAGTCCTTGGGTTCTAACCTGTTGCCA (site GTTCAGACTAA)	0.031
CCAATTGCTTGGGTTCTAACCTGTTGCCT (site CCAATTGCTAG)	0.108
CCAATTGCTTGGGTTCTAACCTGTTGCCT (site CTAATTGCTAG)	0.0541
CCACTCCCTTGGGTTCTAACCTGTTGCCT (site CCACTACCTAG)	0.166
CCACTCCCTTGGGTTCTAACCTGTTGCCT (site CCACTCCCTAG)	0.0427
CCACTCCCTTGGGTTCTAACCTGTTGCCT (site CCACTGCCTAG)	0.0666
CCACTCCCTTGGGTTCTAACCTGTTGCCT (site CCACTTCCTAG)	0.279
CCACTTCCTTGGGTTCTAACCTGTTGCCT (site CCACTACCTAG)	0.233
CCACTTCCTTGGGTTCTAACCTGTTGCCT (site CCACTCCCTAG)	0.176
CCACTTCCTTGGGTTCTAACCTGTTGCCT (site CCACTGCCTAG)	0.0522
CCACTTCCTTGGGTTCTAACCTGTTGCCT (site CCACTTCCTAG)	0.0928
CCAGAAGCTTGGGTTCTAACCTGTTGCGT (site CCAGAAGCTAC)	0.279
CCAGAAGCTTGGGTTCTAACCTGTTGCGT (site CCAGTAGCTCC)	0.434
CCAGCTGCTTGGGTTCTAACCTGTTGCCT (site CCAGCTGCTAG)	1.11

Sequence	recombinant barcode read abundance (log10)
CCAGCTGCTTGGGTTCTAACCTGTTGCCT (site GTGCGCTCTGC)	0.137
CCAGGAGCTTGGGTTCTAACCTGTTGCAG (site CCAGGAGCTCT)	0.312
CCAGGAGCTTGGGTTCTAACCTGTTGCAG (site TCTGGAGCTCT)	0.141
CCAGGGACTTGGGTTCTAACCTGTTGCCT (site CCAAGGACTAG)	0.683
CCAGGGACTTGGGTTCTAACCTGTTGCCT (site CCACGGACTAG)	0.294
CCAGGGACTTGGGTTCTAACCTGTTGCCT (site CCAGGGACTAG)	1.31
CCAGGGACTTGGGTTCTAACCTGTTGCCT (site CCATGGACTAG)	0.0751
CCAGTTACTTGGGTTCTAACCTGTTGCCT (site CCAGTAACTAG)	0.104
CCAGTTACTTGGGTTCTAACCTGTTGCCT (site CCAGTCACTAG)	0.132
CCAGTTACTTGGGTTCTAACCTGTTGCCT (site CCAGTGACTAG)	0.195
CCAGTTACTTGGGTTCTAACCTGTTGCCT (site CCAGTTACTAG)	0.351
CCATACCCTTGGGTTCTAACCTGTTGCTA (site ATCATAGCTGC)	0.019
CCATACCCTTGGGTTCTAACCTGTTGCTA (site CCATACCCTTA)	0.884
CCATAGTCTTGGGTTCTAACCTGTTGCTT (site CCATAGTCTAA)	0.732
CCATAGTCTTGGGTTCTAACCTGTTGCTT (site GCACAGTCTAA)	0.052
CCATCCTCTTGGGTTCTAACCTGTTGCTT (site CAATCCTCTAA)	0.04
CCATCCTCTTGGGTTCTAACCTGTTGCTT (site CCATCCTCTAA)	0.0749
CCATGGTCTTGGGTTCTAACCTGTTGCTT (site CCATACTCTAA)	0.01
CCATGGTCTTGGGTTCTAACCTGTTGCTT (site CCATGGTCTAA)	1.78
CCGAATCCTTGGGTTCTAACCTGTTGCCT (site CCGAATCCTAG)	0.355
